In PubChem BioAssay AID248 (DTP/NCI, 2004):
Where “and” joins values, the source holds several entries; their conditions need not be identical. Equal entries are not always repeated. Toxic doses and inconclusive results are not listed. Rule as the data show it: active = T/C of 150% or more; inactive = T/C below 125%.

Test system: L1210 leukemia ip in BDF1 mice, survival T/C
Assay: NCI In Vivo Anticancer Drug Screen. Data for tumor model L1210 Leukemia (intraperitoneal) in B6D2F1 (BDF1) mice
Settings: endpoint: mean survival time, higher = longer survival
Method in brief: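 Survival endpoint. Drug-treated group vs vehicle group, expressed as T divided by C. Tumor passaged by transplantation.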

[1] = dose: 100.0 mg/kg/injection, schedule: Q01DX001 (ip), vehicle: saline
[2] = dose: 200.0 mg/kg/injection, schedule: Q01DX001 (ip), vehicle: saline
[3] = dose: 400.0 mg/kg/injection, schedule: Q01DX001 (ip), vehicle: saline
[4] = dose: 100.0 mg/kg/injection, schedule: Q04DX002 (ip), vehicle: saline
[5] = dose: 100.0 mg/kg/injection, schedule: Q01DX001 (ip), vehicle: carboxymethylcellulose (CMC)
[6] = dose: 200.0 mg/kg/injection, schedule: Q01DX001 (ip), vehicle: carboxymethylcellulose (CMC)
[7] = dose: 100.0 mg/kg/injection, schedule: Q04DX003 (ip), vehicle: acetone
[8] = dose: 200.0 mg/kg/injection, schedule: Q04DX003 (ip), vehicle: acetone
[9] = dose: 50.0 mg/kg/injection, schedule: Q01DX009 (ip), vehicle: saline
[10] = dose: 200.0 mg/kg/injection, schedule: Q04DX002 (ip), vehicle: saline with Tween-80
[11] = dose: 400.0 mg/kg/injection, schedule: Q01DX001 (ip), vehicle: carboxymethylcellulose (CMC)
[12] = dose: 100.0 mg/kg/injection, schedule: Q01DX009 (ip), vehicle: saline
[13] = dose: 100.0 mg/kg/injection, schedule: Q04DX003 (ip), vehicle: Klucel (hydroxypropylcellulose) (HPC)
[14] = dose: 200.0 mg/kg/injection, schedule: Q04DX003 (ip), vehicle: Klucel (hydroxypropylcellulose) (HPC)

Measured: T/C

CC(=O)c1ccncc1
inactive: dose: 50.0 mg/kg/injection, schedule: Q01DX001 (ip), vehicle: saline 94 % of control | [1] 89 % of control | [2] 94 % of control | [3] 94 % of control

C#CCCCCC#[C][Hg][C]#CCCCCC#C
inactive: dose: 75.0 mg/kg/injection, schedule: Q01DX001 (ip), vehicle: saline 94 % of control

ClCc1c2ccccc2cc2ccccc12
inactive: dose: 6.25 mg/kg/injection, schedule: Q04DX002 (ip), vehicle: saline with Tween-80 101 % of control | dose: 12.5 mg/kg/injection, schedule: Q04DX002 (ip), vehicle: saline with Tween-80 101 % of control

Cc1ccc(C(=O)CCl)o1
inactive: dose: 100.0 mg/kg/injection, schedule: Q04DX003 (ip), vehicle: saline with Tween-80 106 % of control | dose: 200.0 mg/kg/injection, schedule: Q04DX003 (ip), vehicle: saline with Tween-80 116 % of control

CCCC(=O)N1CCCC1
inactive: [4] 107 % of control | dose: 200.0 mg/kg/injection, schedule: Q04DX002 (ip), vehicle: saline 103 % of control | dose: 400.0 mg/kg/injection, schedule: Q04DX002 (ip), vehicle: saline 111 % of control

C1CCN(CCCCN2CCCCC2)CC1
inactive: [1] 96 % of control | [2] 104 % of control | [3] 108 % of control

CSCS(C)=O (stereo not given)
inactive: dose: 100.0 mg/kg/injection, schedule: Q04DX003 (ip), vehicle: saline 104 % of control | dose: 200.0 mg/kg/injection, schedule: Q04DX003 (ip), vehicle: saline 103 % of control | dose: 400.0 mg/kg/injection, schedule: Q04DX003 (ip), vehicle: saline 103 % of control

CNC(=O)c1cc(NC(=O)c2ccc(C(=O)Nc3cc(C(=O)NC)cc(C4=NCCN4)c3)cc2)cc(C2=NCCN2)c1
inactive: dose: 16.0 mg/kg/injection, schedule: Q01DX015 (ip), vehicle: methylcellulose (MC) 90 % of control | dose: 25.0 mg/kg/injection, schedule: Q01DX009 (ip), vehicle: carboxymethylcellulose (CMC) 96 % of control | dose: 31.0 mg/kg/injection, schedule: Q01DX015 (ip), vehicle: methylcellulose (MC) 94 % of control | dose: 50.0 mg/kg/injection, schedule: Q01DX009 (ip), vehicle: carboxymethylcellulose (CMC) 96 % of control | dose: 62.0 mg/kg/injection, schedule: Q01DX015 (ip), vehicle: methylcellulose (MC) 94 % of control and 120 % of control | [5] 96 % of control | dose: 100.0 mg/kg/injection, schedule: Q01DX009 (ip), vehicle: carboxymethylcellulose (CMC) 113 % of control | dose: 125.0 mg/kg/injection, schedule: Q01DX015 (ip), vehicle: methylcellulose (MC) 94 % of control and 102 % of control | [6] 91 % of control | dose: 200.0 mg/kg/injection, schedule: Q01DX009 (ip), vehicle: carboxymethylcellulose (CMC) 98 % of control | dose: 500.0 mg/kg/injection, schedule: Q01DX015 (ip), vehicle: methylcellulose (MC) 106 % of control

C=C(C)C1CCC2=CCCC(C)C2(C)C1 (stereo not given)
inactive: [7] 98 % of control | [8] 96 % of control

CC(CN1c2ccccc2Sc2cccnc21)N(C)C (stereo not given)
inactive: dose: 3.12 mg/kg/injection, schedule: Q01DX009 (ip), vehicle: saline 97 % of control | dose: 6.25 mg/kg/injection, schedule: Q01DX009 (ip), vehicle: saline 97 % of control | dose: 12.5 mg/kg/injection, schedule: Q01DX009 (ip), vehicle: saline 101 % of control | dose: 25.0 mg/kg/injection, schedule: Q01DX009 (ip), vehicle: saline 103 % of control | dose: 25.0 mg/kg/injection, schedule: Q04DX003 (ip), vehicle: saline 108 % of control | [9] 111 % of control | dose: 50.0 mg/kg/injection, schedule: Q04DX003 (ip), vehicle: saline 102 % of control

C/C(=N\N=C(N)N)c1cccc(NC(=S)Nc2cccc(/C(C)=N/N=C(N)N)c2)c1
inactive: dose: 20.0 mg/kg/injection, schedule: Q01DX005 (ip), vehicle: saline with Tween-80 108 % of control

Cc1nc(N)[nH]c(=O)c1CCCN(c1ccccc1)S(=O)(=O)c1ccc([N+](=O)[O-])cc1
inactive: dose: 6.25 mg/kg/injection, schedule: Q01DX001 (ip), vehicle: saline with Tween-80 104 % of control | dose: 12.5 mg/kg/injection, schedule: Q01DX001 (ip), vehicle: saline with Tween-80 100 % of control | dose: 25.0 mg/kg/injection, schedule: Q01DX001 (ip), vehicle: saline with Tween-80 98 % of control

C[N+](C)(C)C.Cl[Br-]Br
inactive: dose: 6.25 mg/kg/injection, schedule: Q01DX009 (ip), vehicle: alcohol 95 % of control | dose: 12.5 mg/kg/injection, schedule: Q01DX009 (ip), vehicle: alcohol 89 % of control

CC(=O)NCc1cccc[n+]1[O-]
inactive: dose: 25.0 mg/kg/injection, schedule: Q04DX002 (ip), vehicle: saline 110 % of control | dose: 50.0 mg/kg/injection, schedule: Q04DX002 (ip), vehicle: saline 105 % of control | [4] 101 % of control and 105 % of control

COC1CCN(CCCn2c3ccccc3c3ccc(C(C)=O)cc32)CC1
inactive: [1] 97 % of control | [2] 105 % of control

Cc1cc(N(CCOS(C)(=O)=O)CCOS(C)(=O)=O)ccc1C=Nc1cccc(C(=O)O)c1
inactive: dose: 2.5 mg/kg/injection, schedule: Q04DX003 (ip), vehicle: Klucel (hydroxypropylcellulose) (HPC) 111 % of control | dose: 5.0 mg/kg/injection, schedule: Q04DX003 (ip), vehicle: Klucel (hydroxypropylcellulose) (HPC) 113 % of control | dose: 10.0 mg/kg/injection, schedule: Q04DX003 (ip), vehicle: Klucel (hydroxypropylcellulose) (HPC) 122 % of control | dose: 20.0 mg/kg/injection, schedule: Q04DX003 (ip), vehicle: Klucel (hydroxypropylcellulose) (HPC) 120 % of control | dose: 40.0 mg/kg/injection, schedule: Q04DX003 (ip), vehicle: Klucel (hydroxypropylcellulose) (HPC) 115 % of control

Cc1cccc2c1C(=S)NC2=O
inactive: dose: 100.0 mg/kg/injection, schedule: Q04DX002 (ip), vehicle: saline with Tween-80 103 % of control | [10] 100 % of control | dose: 400.0 mg/kg/injection, schedule: Q04DX002 (ip), vehicle: saline with Tween-80 89 % of control

Nc1nc(SCc2ccncc2)c2[nH]cnc2n1
inactive: dose: 178.0 mg/kg/injection, schedule: Q01DX001 (ip), vehicle: saline 118 % of control

O=C(O)c1cccc2c1-c1ccccc1C(Br)C2Br (stereo not given)
inactive: [10] 101 % of control

CCOC(=O)CC(=O)OCC
inactive: [1] 93 % of control | [2] 93 % of control | [3] 90 % of control

CC(=O)C1=C(C)NC(C)=C(C(C)=O)C1C
inactive: dose: 55.0 mg/kg/injection, schedule: Q01DX Z (ip), vehicle: saline 97 % of control | dose: 83.0 mg/kg/injection, schedule: Q01DX Z (ip), vehicle: saline 95 % of control | dose: 125.0 mg/kg/injection, schedule: Q01DX Z (ip), vehicle: saline 100 % of control

CC1(C)COC(c2ccc3c(c2)OCO3)OC1
inactive: [5] 96 % of control | [6] 97 % of control | [11] 94 % of control

CCCS(=O)(=O)c1ccc(C)cc1
inactive: [1] 98 % of control | [12] 94 % of control | [7] 100 % of control | [2] 98 % of control | dose: 200.0 mg/kg/injection, schedule: Q01DX009 (ip), vehicle: saline 93 % of control | [8] 102 % of control | [3] 107 % of control | dose: 400.0 mg/kg/injection, schedule: Q01DX009 (ip), vehicle: saline 93 % of control | dose: 400.0 mg/kg/injection, schedule: Q04DX003 (ip), vehicle: acetone 100 % of control

CCCCCCCCOC(=O)Nc1ccc(S(=O)(=O)N(C)C)cc1
inactive: [5] 98 % of control | [6] 97 % of control | [11] 89 % of control

O=[n+]1ccn2ccccc2c1
inactive: [9] 100 % of control | [12] 102 % of control | [13] 98 % of control | [14] 104 % of control

O=C1OCCN1/N=C/c1ccc([N+](=O)[O-])o1
inactive: dose: 100.0 mg/kg/injection, schedule: Q01DX009 (ip), vehicle: Klucel (hydroxypropylcellulose) (HPC) 107 % of control | [13] 105 % of control | dose: 200.0 mg/kg/injection, schedule: Q01DX009 (ip), vehicle: Klucel (hydroxypropylcellulose) (HPC) 110 % of control | [14] 105 % of control | dose: 400.0 mg/kg/injection, schedule: Q01DX009 (ip), vehicle: Klucel (hydroxypropylcellulose) (HPC) 97 % of control | dose: 400.0 mg/kg/injection, schedule: Q04DX003 (ip), vehicle: Klucel (hydroxypropylcellulose) (HPC) 106 % of control
